Patent US20250304587A1, “WEE1 INHIBITOR, PREPARATION THEREFOR AND USE THEREOF” (JIANGSU TASLY DIYI PHARMACEUTICAL CO., LTD., priority 2022, published 2025)
Read-outs that look alike come from different tables or passages of the source.

Columns and labels:
Wee1 protein = Wee1 protein (Homo sapiens (Human), UniProt P30291); assay: TR-FRET binding of compound to Wee1 protein and Tracer 178; details: Tracer 178, read-out: IC50, inhibitory activity against Wee1 kinase
Procedure: First, solutions of the compounds in different concentration gradients were prepared. The compounds were dissolved in DMSO and the compounds were diluted 4 folds with a total of 10 dose points and 2 parallel replicates for each concentration.
The IC50 for inhibition of enzyme activity by the compounds was then calculated using GraphPad Prism 6 and fitted with a log (inhibitor) vs. response-Variable slope mode. The fitting equation was: Y=Bottom+(Top−Bottom)/(1+10^((Log IC50−X)*HillSlope)), where Y represents the percentage of residual enzyme activity known and X represents the known concentration of compound after the logarithm.

BxPC3 cells = assay: Cell Titer-Glo anti-proliferation, BxPC3 cells; type: cell-based, human; details: 3 days, read-out: Anti-proliferative activity BxPC3 (IC50 class)
In short: (§1)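 Each line was exposed to graded compound concentrations for 3 days at 37 °C, 5% CO2, with final DMSO at 0.2%. Viability was measured by Cell Titer-Glo luminescence, with untreated cells as the maximum and medium as the minimum signal. IC50 came from a variable-slope log(inhibitor)-response fit.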

HT-29 cells = assay: Cell Titer-Glo anti-proliferation, HT-29 cells; type: cell-based, human; details: 3 days, read-out: Anti-proliferative activity HT-29 (IC50 class)
In short: as §1

OVCAR-3 cells = assay: Cell Titer-Glo anti-proliferation, OVCAR-3 cells; type: cell-based; details: 3 days, read-out: Anti-proliferative activity OVCAR-3 (IC50 class)
In short: as §1

HUVEC cells = assay: Cell Titer-Glo anti-proliferation, normal cells HUVEC; type: cell-based
Procedure: (§2) Compound solutions of different concentration gradients were prepared. […] The cell growth group without compound was used as a positive control (maximum signal control) and the medium was used as a negative control (minimum signal control), while ensuring that the final level of DMSO in each reaction well was 0.2%. After removing the medium from the 384-well plate, 25 μl of the configured compound at different concentrations was transferred into the well plate and the compound and cells were incubated in the cell incubator at 37° C. with 5% CO2 for 3 days.
(§3) The 384-well plates were removed from the cell incubator and allowed to equilibrate for 1 h to room temperature. 25 μl of Cell Titer-Glo assay was added to each well, lysed on a shaker for 2 min and then read out (Luminescence) using a BMG PHERAStar after 10 min incubation. Calculate the inhibition rate from the luminescence signal.
(§4) to calculate the rate of inhibition of the cells by different concentrations of the compounds. The IC50 of the compound on cell activity inhibition was calculated by fitting a log(inhibitor) vs. response-Variable slope model to GraphPad Prism 6. The fitted equation was: Y=Bottom+(Top-Bottom)/(1+10^((Log IC50−X)*HillSlope)), where Y represents the rate of inhibition and X represents the concentration of the known compound after Log.
(§5) B. Evaluation of the Anti-Proliferative Effect of Compounds by the Cell Titer-Glo Method on Normal Cells HUVEC and HK2.
(§6) The test method is the same as the anti-proliferative activity evaluation of tumor cells.

HK2 cells = assay: Cell Titer-Glo anti-proliferation, normal cells HK2; type: cell-based
Procedure: as §2, §3, §4, §5, §6

CYP3A4 = CYP3A4 (Homo sapiens (Human), UniProt P08684); assay: Cytochrome P450 inhibition (fluorescence), CYP3A4; type: in vitro ADME
Procedure: (§7) Enzymatic experiments were performed to quantify the inhibition of CYP450 enzyme activity of each isoform of CYP450 by small molecule inhibitors through fluorescence generated by the oxidation of the substrate by cytochrome P450. […] The Solution B composition used for the experiment was: 40 U/mL G6PDH (Sigma-aldrich, Cat #G6378). The substrate mix was 0.05× Solution A, 0.01× Solution B, 50 mM Potassium Phosphate, 0.01 mM BOMCC/0.01 mM EOMCC/0.001 mM DBOMF. […] The data were analyzed and processed using GraphPad Prism 6 software to obtain IC50 values.

CYP1A2 = CYP1A2 (Homo sapiens (Human), UniProt P05177); assay: Cytochrome P450 inhibition (fluorescence), CYP1A2; type: in vitro ADME
Procedure: as §7

CYP2C9 = CYP2C9 (Homo sapiens (Human), UniProt P11712); assay: Cytochrome P450 inhibition (fluorescence), CYP2C9; type: in vitro ADME
Procedure: as §7

CYP2C19 = CYP2C19 (Homo sapiens (Human), UniProt P33261); assay: Cytochrome P450 inhibition (fluorescence), CYP2C19; type: in vitro ADME
Procedure: as §7

CYP2D6 = CYP2D6 (Homo sapiens (Human), UniProt P10635); assay: Cytochrome P450 inhibition (fluorescence), CYP2D6; type: in vitro ADME
Procedure: as §7

CYP2C8 = CYP2C8 (Homo sapiens (Human), UniProt P10632); assay: Cytochrome P450 inhibition (fluorescence), CYP2C8; type: in vitro ADME
Procedure: as §7

CYP 2B6 = CYP 2B6 (Homo sapiens (Human), UniProt P20813); assay: Cytochrome P450 inhibition, CYP2B6; type: in vitro ADME
Procedure: as §7

plasma protein = assay: Plasma protein binding (equilibrium dialysis), mouse; details: mouse plasma, 1 μM, 5 h dialysis
Procedure: Sample preparation: The compound was dissolved in DMSO to a stock solution of 10 mM, then the compound was diluted with PBS to a secondary stock solution of 0.02 mM, and then the above 0.02 mM was diluted to 1 μM using blank plasma, which was the sample to be incubated.
Dialysis set-up preparation: 400 μL of blank PBS was first added to the white wells of the equilibrated dialysis plate and 200 μL of the configured plasma sample was added to the red wells, and the dialysis plate was sealed with a sealing film.
Recovery plate preparation: Two 96-well deep-well plates, labelled T0 and T5, were prepared and all plasma samples were added at n=2. 300 μL of acetonitrile (Verapamil-HCl, 4 ng/mL) was added directly to the TO plate, followed by 50 μL of blank PBS mix well for 5 min and left to stand in a 4° C. refrigerator until the end of the incubation.
Experimental Operation: The dialysis device and the T5 plate were incubated together for 5 h in a microplate thermostatic shaker (37° C., using 300 rpm or minimum speed). At the end of the incubation, 300 μL of acetonitrile (Verapamil-HCl, 4 ng/mL) was added and 50 μL of PBS solution was added. At the end of the dialysis incubation, a new 96-well deep well plate was taken. Add 50 μL of plasma well sample to the corresponding position of the 96-well plate, 300 μL of acetonitrile and 50 μL of blank PBS; take 50 μL of buffer well sample to the corresponding position of the 96-well plate, then add 300 μL of acetonitrile and 50 μL of blank plasma. Add 300 μL of acetonitrile (Verapamil-HCl, 4 ng/mL) to the plasma-containing wells of the T5 plate, and then 50 μL of PBS solution was added. Shake for 5 min to fully precipitate the proteins and centrifuge at 20,000 g for 10 min at 4° C. Add 200 μL of supernatant to 200 μL of pure water, mix well and perform LC-MS/MS analysis.
• Plasma protein binding rate=[(Rpe−Rb)/Rpe]×100% • Recovery=[(Rpe+Rb)/R5 h]×100% • Stability=(R5/R0)×100%
• Rpe=ratio of plasma-side testing sample peak area to internal standard • Rb=ratio of buffer side testing sample peak area to internal standard • R5=ratio of incubator stability sample peak area to internal standard • R0=ratio of refrigerator stability sample peak area to internal standard

[1] = Saturated solubility in buffer at different pH; type: physicochemical
Procedure: The compound was placed in a buffer solution and shaken at constant temperature for 24 h. […] Chromatographic conditions: C18 column, mobile phase A: 0.02 M potassium dihydrogen phosphate:acetonitrile=90:10, mobile phase B: acetonitrile; V: 1.0 ml/min, T: 35° C., λ: 210 nm.

Caco-2 cells = assay: Membrane permeability in Caco-2 model; type: in vitro ADME
Procedure: Caco-2 cells were purchased from the American Model Tissue Cell Collection (Rockville, MD). The cell culture medium was modified Eagle's medium (MEM) containing 10% inactivated fetal bovine serum and 1% non-essential amino acids. […] The cells were incubated for 21-28 days after inoculation for transport experiments and the apparent permeability (Papp) of Lucifer Yellow was used to characterize and verify the compactness of the cell monolayer. […] After the incubation, dilute the samples on the apical side and basolateral side, and the concentrations of compounds on the apical and basolateral sides were detected by LC-MS/MS, and the concentrations of the compounds were quantified by standard curve.

hERG potassium channel = hERG potassium channel (Homo sapiens (Human), UniProt Q12809); assay: hERG potassium channel inhibition, patch clamp in CHO hERG cells
[2] = Toxicity in rats after 14 consecutive days of administration, survival; details: 75 mg/kg qd by gavage, 14 days

Sequence of Wee1 protein (P30291 whole entry): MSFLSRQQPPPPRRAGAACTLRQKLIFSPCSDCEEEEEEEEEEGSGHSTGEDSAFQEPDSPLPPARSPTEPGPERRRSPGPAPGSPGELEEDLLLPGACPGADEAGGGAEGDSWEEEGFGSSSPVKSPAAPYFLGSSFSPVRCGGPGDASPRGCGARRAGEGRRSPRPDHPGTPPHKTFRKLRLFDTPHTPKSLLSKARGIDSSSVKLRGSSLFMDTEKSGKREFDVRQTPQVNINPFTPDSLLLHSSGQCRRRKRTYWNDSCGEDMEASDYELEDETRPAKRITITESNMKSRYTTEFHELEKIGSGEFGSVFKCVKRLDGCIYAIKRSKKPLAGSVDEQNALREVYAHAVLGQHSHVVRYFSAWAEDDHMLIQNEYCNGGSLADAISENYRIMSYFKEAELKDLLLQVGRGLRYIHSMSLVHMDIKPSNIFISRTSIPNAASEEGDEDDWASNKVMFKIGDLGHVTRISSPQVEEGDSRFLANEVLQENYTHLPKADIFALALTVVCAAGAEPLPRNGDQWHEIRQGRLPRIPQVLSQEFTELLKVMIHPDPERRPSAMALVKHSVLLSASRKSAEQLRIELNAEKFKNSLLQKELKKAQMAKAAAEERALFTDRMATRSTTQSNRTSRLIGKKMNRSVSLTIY
Sequence of CYP2D6 (P10635 whole entry): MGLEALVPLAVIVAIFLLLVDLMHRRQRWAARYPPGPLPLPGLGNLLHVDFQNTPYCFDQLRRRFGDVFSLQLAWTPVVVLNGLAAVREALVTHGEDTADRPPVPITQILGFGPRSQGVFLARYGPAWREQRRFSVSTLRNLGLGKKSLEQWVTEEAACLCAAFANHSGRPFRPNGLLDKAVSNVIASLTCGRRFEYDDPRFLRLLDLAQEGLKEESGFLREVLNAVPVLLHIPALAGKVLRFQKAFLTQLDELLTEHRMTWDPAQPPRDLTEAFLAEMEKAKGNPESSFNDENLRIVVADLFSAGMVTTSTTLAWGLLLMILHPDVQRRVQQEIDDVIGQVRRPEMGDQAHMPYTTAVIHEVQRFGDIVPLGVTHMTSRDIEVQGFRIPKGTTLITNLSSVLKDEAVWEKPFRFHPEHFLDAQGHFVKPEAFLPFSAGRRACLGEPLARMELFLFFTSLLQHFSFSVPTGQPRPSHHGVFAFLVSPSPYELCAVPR
Sequence of hERG potassium channel (Q12809 whole entry): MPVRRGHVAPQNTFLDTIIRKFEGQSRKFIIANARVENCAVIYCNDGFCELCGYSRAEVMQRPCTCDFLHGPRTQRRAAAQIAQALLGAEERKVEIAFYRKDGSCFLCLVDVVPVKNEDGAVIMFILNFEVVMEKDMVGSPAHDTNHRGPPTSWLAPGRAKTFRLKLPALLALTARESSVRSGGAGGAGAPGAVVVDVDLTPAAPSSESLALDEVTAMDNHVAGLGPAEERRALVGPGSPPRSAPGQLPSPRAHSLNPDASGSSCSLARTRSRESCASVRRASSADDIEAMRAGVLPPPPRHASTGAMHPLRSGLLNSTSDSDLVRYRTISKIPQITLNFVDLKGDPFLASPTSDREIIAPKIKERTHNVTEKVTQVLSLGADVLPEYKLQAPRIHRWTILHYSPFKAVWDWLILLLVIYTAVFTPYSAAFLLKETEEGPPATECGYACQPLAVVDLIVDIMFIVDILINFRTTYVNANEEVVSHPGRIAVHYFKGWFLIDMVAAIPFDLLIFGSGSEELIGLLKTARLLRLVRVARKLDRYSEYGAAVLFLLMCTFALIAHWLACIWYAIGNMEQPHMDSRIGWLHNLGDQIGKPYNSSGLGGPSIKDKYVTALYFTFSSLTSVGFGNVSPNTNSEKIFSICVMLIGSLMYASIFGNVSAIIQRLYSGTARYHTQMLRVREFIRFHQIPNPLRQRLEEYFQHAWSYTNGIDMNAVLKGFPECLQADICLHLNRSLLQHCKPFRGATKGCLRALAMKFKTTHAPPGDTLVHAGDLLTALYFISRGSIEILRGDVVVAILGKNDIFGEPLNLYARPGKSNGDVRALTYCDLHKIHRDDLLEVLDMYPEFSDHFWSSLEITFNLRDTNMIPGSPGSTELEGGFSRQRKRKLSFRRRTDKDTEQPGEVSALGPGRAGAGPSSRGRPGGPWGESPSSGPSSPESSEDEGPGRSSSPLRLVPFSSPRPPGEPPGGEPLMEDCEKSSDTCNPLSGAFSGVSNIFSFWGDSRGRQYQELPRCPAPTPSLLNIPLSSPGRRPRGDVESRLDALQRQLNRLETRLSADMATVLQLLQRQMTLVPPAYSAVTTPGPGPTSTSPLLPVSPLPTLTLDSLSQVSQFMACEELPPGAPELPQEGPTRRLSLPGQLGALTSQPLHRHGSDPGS
Sequence of CYP2C19 (P33261 whole entry): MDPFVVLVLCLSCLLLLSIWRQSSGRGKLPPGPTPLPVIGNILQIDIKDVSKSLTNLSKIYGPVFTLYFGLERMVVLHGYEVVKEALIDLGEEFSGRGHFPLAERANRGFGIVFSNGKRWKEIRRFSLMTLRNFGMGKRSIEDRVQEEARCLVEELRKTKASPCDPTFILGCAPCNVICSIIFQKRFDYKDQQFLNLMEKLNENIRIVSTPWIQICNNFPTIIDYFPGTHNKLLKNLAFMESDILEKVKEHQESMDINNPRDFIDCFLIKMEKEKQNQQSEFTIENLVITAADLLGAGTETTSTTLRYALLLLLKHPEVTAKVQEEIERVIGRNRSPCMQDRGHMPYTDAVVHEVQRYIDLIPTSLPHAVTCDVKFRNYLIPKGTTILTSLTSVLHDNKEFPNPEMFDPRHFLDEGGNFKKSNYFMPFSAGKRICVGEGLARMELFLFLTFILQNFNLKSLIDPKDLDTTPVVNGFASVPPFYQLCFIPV
Sequence of CYP3A4 (P08684 whole entry, canonical isoform): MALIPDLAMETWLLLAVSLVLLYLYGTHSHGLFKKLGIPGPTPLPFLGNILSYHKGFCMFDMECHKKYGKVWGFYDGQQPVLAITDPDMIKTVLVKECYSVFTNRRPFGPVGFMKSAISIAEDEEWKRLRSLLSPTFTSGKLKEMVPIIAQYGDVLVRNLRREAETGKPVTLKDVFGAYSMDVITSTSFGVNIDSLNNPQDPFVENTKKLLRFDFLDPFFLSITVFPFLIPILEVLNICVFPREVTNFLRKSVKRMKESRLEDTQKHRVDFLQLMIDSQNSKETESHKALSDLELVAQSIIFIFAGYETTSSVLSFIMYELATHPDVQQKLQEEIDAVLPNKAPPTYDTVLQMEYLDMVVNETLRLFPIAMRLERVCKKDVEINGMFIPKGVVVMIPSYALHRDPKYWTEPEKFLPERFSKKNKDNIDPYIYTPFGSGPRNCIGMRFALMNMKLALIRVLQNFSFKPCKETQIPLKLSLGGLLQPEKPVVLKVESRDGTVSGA
Sequence of CYP2C8 (P10632 whole entry): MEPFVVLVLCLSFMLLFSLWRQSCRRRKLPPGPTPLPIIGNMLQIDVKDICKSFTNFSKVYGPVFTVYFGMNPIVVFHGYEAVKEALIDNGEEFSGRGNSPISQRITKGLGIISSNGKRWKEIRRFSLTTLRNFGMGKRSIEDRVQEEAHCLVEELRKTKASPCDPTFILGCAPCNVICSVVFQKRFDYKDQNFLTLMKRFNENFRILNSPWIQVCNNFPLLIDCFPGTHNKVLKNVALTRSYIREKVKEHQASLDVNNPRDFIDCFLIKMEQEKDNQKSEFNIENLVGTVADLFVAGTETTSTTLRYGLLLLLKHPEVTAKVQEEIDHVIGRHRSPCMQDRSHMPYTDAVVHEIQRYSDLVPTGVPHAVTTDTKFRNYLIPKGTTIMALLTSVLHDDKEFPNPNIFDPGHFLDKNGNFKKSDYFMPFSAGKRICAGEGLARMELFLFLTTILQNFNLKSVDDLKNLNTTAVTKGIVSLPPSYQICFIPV
Sequence of CYP1A2 (P05177 whole entry): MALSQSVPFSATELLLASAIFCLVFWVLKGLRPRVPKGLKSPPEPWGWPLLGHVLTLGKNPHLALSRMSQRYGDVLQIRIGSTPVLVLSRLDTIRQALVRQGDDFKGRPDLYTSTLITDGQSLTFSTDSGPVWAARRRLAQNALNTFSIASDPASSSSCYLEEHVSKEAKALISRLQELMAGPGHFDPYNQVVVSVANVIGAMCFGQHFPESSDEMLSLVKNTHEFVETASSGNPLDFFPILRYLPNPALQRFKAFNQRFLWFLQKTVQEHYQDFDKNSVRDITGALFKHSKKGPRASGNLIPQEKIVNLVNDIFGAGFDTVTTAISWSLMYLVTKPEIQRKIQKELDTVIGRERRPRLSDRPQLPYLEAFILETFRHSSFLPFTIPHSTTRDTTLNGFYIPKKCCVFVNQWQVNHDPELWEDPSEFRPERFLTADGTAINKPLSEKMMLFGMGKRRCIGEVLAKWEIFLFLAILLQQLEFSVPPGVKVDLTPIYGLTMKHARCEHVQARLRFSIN
Sequence of CYP2C9 (P11712 whole entry): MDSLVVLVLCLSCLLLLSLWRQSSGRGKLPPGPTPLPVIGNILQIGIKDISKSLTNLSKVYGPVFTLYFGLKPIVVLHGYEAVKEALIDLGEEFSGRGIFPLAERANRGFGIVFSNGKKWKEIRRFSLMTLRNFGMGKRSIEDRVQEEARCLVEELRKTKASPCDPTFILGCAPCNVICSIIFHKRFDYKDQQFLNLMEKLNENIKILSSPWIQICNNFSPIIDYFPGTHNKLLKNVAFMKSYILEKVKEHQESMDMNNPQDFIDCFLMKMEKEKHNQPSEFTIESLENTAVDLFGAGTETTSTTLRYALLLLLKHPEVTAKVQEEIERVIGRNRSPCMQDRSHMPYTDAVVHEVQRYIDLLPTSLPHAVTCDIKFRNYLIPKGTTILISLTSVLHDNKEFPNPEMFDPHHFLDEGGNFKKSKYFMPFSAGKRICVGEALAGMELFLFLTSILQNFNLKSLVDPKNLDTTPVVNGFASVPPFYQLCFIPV

C=CCn1c(=O)c2cnc(Nc3ccc(N4CCC5(CCN(C)CC5)CC4)cc3)nc2n1-c1ccc2c(n1)[C@H](O)C1(CC2)CC1 [Compound 37b]
IC50 (Wee1 protein): 0.005 to 0.01 µM | IC50 (BxPC3 cells): 0.1 to 1 µM | IC50 (HT-29 cells): 0.1 to 1 µM | IC50 (OVCAR-3 cells): 0.1 to 1 µM | IC50 (HUVEC cells): > 10 µM | IC50 (HK2 cells): 1.53 µM | IC50 (CYP3A4; read-out: IC50 CYP3A4): > 10 µM | IC50 (CYP1A2): > 10 µM | IC50 (CYP2C9; read-out: IC50 CYP2C9): > 10 µM | IC50 (CYP2C19; read-out: IC50 CYP2C19): > 10 µM | IC50 (CYP2D6; read-out: IC50 CYP2D6): > 10 µM | IC50 (CYP2C8; read-out: IC50 CYP2C8): > 10 µM | IC50 (CYP 2B6): > 10 µM

C=CCn1c(=O)c2cnc(Nc3ccc(N4CCN(C)CC4)cc3)nc2n1-c1ccc2c(n1)C(C)(O)C1(CC1)C2 (stereo not shown) [Compound 3]
IC50 (Wee1 protein): 0.005 to 0.01 µM | IC50 (BxPC3 cells): 1 to 2 µM | IC50 (HT-29 cells): 0.1 to 1 µM | IC50 (OVCAR-3 cells): 1 to 2 µM | IC50 (CYP3A4): > 10 µM | IC50 (CYP1A2; read-out: IC50 CYP1A2): > 10 µM | IC50 (CYP2C9): > 10 µM | IC50 (CYP2C19): > 10 µM | IC50 (CYP2D6): > 10 µM | IC50 (CYP2C8): > 10 µM | Plasma Protein binding (PPB) Mouse (plasma protein): 87.75%

C=CCn1c(=O)c2cnc(Nc3ccc(N4CCN(C)CC4)cc3)nc2n1-c1ccc2c(n1)[C@@](O)(CC)CC2 [ZnC3, reference compound]
IC50 (Wee1 protein): 0.01 to 0.1 µM | IC50 (BxPC3 cells): 0.1 to 1 µM | IC50 (HT-29 cells): 0.1 to 1 µM | IC50 (OVCAR-3 cells): 0.1 to 1 µM | IC50 (HUVEC cells): > 10 µM | IC50 (HK2 cells): 0.34 µM | Saturated solubility pH 5.0 ([1]; pH 5): 0.35 mg/mL | Saturated solubility pH 6.5 ([1]; pH 6.5): 0.59 mg/mL | Saturated solubility pH 7.4 ([1]; pH 7.4): 0.68 mg/mL | Efflux Ration (Caco-2 cells; Caco2): 35.74 | Papp A to B (Caco-2 cells; Caco2, 10 μM, 90 min): 0.42 10^−6 cm/s | Papp B to A (Caco-2 cells; Caco2, 10 μM, 90 min): 15.01 10^−6 cm/s | hERG Inhibition (hERG potassium channel; test concentration 5 μM): 7.38 ± 1.59% | hERG Inhibition (hERG potassium channel; test concentration 20 μM): 18.05 ± 7.58% | Survival of Rats ([2]; female rats): 1/7 | Survival of Rats ([2]; male rats): 2/7
